biological target: T1, human vanilloid-1 (hVR-1) in hVR-1-HEK293 cell line (Homo sapiens, UniProt Q8NER1); assay: Inhibitory effect on calcium influx via a vanilloid receptor (capsaicin-stimulated, Fluo-3/AM); format: cell-based; conditions: hVR-1-HEK293 cells, 1 μM of capsaicin, compounds 0.015˜2000 nM; read-out: I.A. (inhibitory activity), IC50 on intracellular calcium influx
T1 construct: expressed in transfected cells; host or cells: HEK293 Tet-on strain, doxycycline-induced
Experimental: The cell line can modulate the expression of VR-1, depending on whether doxycycline, a derivative of tetracycline, is present or not. […] Specifically, hVR-1-HEK293 cells were cultured in a T75 flask to about 80% confluency, separated from the flask by treating with trypsin solution, and then collected by centrifugation. The cells were suspended in a medium containing 1 μg/mL of doxycycline, and the resulting suspension was diluted to a concentration of 2˜4×10^5 cells/mL […], of the cell suspension was placed in each well of a 96-well black plate. The cells were cultured in 5% CO2 incubator at 37° C. for 2 days, and used for the following procedure. […] The cells prepared in 1) above were cultured at 37° C. for 90 min in a solution containing Fluo-3/AM, a fluorescent dye, as a calcium indicator so that the fluorescent dye was permeated into the cells. […] In order to stimulate calcium influx through a vanilloid receptor, the cells were treated with 1 μM of capsaicin. […] The obtained data were input to the Hill equation represented by the following formula I and the values were analyzed: Intracellular calcium influx= [(fluorescent intensity of experimental group−fluorescent intensity of background)/(fluorescent intensity of positive control−fluorescent intensity of background)]*100 [Formula I] The inhibitory activities were evaluated from the obtained intracellular calcium influx values according to the following criteria.

T1 sequence (Q8NER1 whole entry): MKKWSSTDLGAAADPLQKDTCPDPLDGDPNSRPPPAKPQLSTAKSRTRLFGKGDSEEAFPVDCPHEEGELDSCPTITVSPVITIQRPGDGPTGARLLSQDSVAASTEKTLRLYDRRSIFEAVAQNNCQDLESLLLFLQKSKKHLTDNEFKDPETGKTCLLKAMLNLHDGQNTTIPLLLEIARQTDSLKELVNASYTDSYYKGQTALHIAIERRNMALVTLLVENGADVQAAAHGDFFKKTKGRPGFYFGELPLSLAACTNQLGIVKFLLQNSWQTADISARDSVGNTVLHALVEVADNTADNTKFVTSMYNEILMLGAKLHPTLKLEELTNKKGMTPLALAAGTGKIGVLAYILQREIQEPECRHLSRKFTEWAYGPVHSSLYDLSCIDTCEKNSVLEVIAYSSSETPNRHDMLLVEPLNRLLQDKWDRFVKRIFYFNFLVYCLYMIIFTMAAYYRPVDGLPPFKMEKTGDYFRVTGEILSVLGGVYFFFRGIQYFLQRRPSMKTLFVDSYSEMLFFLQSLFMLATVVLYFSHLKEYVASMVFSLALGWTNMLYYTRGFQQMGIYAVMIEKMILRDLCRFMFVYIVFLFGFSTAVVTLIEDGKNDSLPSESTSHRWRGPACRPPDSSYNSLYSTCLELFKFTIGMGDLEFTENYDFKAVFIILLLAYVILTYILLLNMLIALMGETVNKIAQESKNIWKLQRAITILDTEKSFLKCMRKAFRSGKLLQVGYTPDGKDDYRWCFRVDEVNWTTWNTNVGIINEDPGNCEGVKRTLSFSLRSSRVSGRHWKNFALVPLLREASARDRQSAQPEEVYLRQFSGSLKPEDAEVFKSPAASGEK

Row | IC50 [nM] | Molecule
1 | 20 to 100 | Cc1ccc(N2CCOc3c(-c4nc5cc(Cl)c(Cl)cc5[nH]4)cccc32)nc1 [Example 28, 8-(5,6-dichloro-1H-benzimidazol-2-yl)-4-(5-methyl-pyridin-2-yl)-3,4-dihydro-2H-benzo[1,4]oxazine]
2 | 20 to 100 | CCc1ccc(N2c3cccc(-c4nc5ccc(C(C)(C)C)cc5[nH]4)c3OC[C@@H]2CO)nc1 [Example 78, [(S)-8-(6-tert-butyl-1H-benzimidazol-2-yl)-4-(5-ethyl-pyridin-2-yl)-3,4-dihydro-2H-benzo[1,4]oxazin-3-yl]-methanol]
3 | 20 to 100 | C=Cc1ccc(N2c3cccc(-c4nc5ccc(C(F)(F)F)cc5[nH]4)c3OC[C@@H]2CO)nc1 [Example 58, [(S)-8-(6-trifluoromethyl-1H-benzimidazol-2-yl)-4-(5-vinyl-pyridin-2-yl)-3,4-dihydro-2H-benzo[1,4]oxazin-3-yl]-methanol]
4 | 20 to 100 | C=Cc1ccc(N2c3cccc(-c4nc5c(C)c(C)ccc5[nH]4)c3OC[C@@H]2CO)nc1 [Example 77, (S)-(8-(4,5-dimethyl-1H-benzo[d]imidazol-2-yl)-4-(5-vinyl-pyridin-2-yl)-3,4-dihydro-2H-benzo[b][1,4]oxazin-3-yl)methanol]
5 | 501 to 1000 | C=Cc1ccc(N2c3cccc(-c4nc5ccc(OC)cc5[nH]4)c3OC[C@@H]2CO)nc1 [Example 72, (S)-(8-(6-methoxy-1H-benzo[d]imidazol-2-yl)-4-(5-vinyl-pyridin-2-yl)-3,4-dihydro-2H-benzo[b][1,4]oxazin-3-yl)methanol]
6 | 101 to 500 | Cc1ccc(N2CCOc3c(-c4nc5cc(Cl)ccc5[nH]4)cccc32)nc1 [Example 27, 8-(5-chloro-1H-benzimidazol-2-yl)-4-(5-methyl-pyridin-2-yl)-3,4-dihydro-2H-benzo[1,4]oxazine]
7 | 101 to 500 | Cc1ccc(N2c3cccc(-c4nc5ccc(C#N)cc5[nH]4)c3OC[C@@H]2CO)nc1 [Example 56, (S)-2-(3-(hydroxymethyl)-4-(5-methyl-pyridin-2-yl)-3,4-dihydro-2H-benzo[b][1,4]oxazin-8-yl)-1H-benzo[d]imidazol-6-carbonitrile]
8 | < 20 | C=Cc1ccc(N2c3cccc(-c4nc5c(Cl)cc(C(F)(F)F)cc5[nH]4)c3OC[C@@H]2CO)nc1 [Example 65, [(S)-8-(4-chloro-6-trifluoromethyl-1H-benzimidazol-2-yl)-4-(5-vinyl-pyridin-2-yl)-3,4-dihydro-2H-benzo[1,4]oxazin-3-yl]-methanol]
9 | 101 to 500 | FC(F)(F)c1ccc2nc(-c3cccc4c3OCCN4c3ncccc3Cl)[nH]c2c1 [Example 16, 4-(3-chloro-pyridin-2-yl)-8-(6-trifluoromethyl-1H-benzimidazol-2-yl)-3,4-dihydro-2H-benzo[1,4]oxazine]
10 | < 20 | Cc1ccc(N2c3cccc(-c4nc5c(F)cc(F)cc5[nH]4)c3OC[C@@H]2CO)nc1 [Example 55, [(S)-8-(4,6-difluoro-1H-benzo[d]imidazol-2-yl)-4-(5-methyl-pyridin-2-yl)-3,4-dihydro-2H-benzo[b][1,4]oxazin-3-yl]-methanol]
11 | 101 to 500 | CC(C)(C)c1ccc2[nH]c(-c3cccc4c3OCCN4c3ccccn3)nc2c1 [Example 12, 8-(5-tert-butyl-1H-benzimidazol-2-yl)-4-pyridin-2-yl-3,4-dihydro-2H-benzo[1,4]oxazine]
12 | 20 to 100 | C=Cc1ccc(N2c3cccc(-c4nc5cc(F)c(Cl)cc5[nH]4)c3OC[C@@H]2CO)nc1 [Example 70, [(S)-8-(6-chloro-5-fluoro-1H-benzimidazol-2-yl)-4-(5-vinyl-pyridin-2-yl)-3,4-dihydro-2H-benzo[1,4]oxazin-3-yl]-methanol]
13 | 20 to 100 | CC(C)(C)c1ccc2[nH]c(-c3cccc4c3OCCN4c3ccc(Cl)cn3)nc2c1 [Example 14, 8-(5-tert-butyl-1H-benzimidazol-2-yl)-4-(5-chloro-pyridin-2-yl)-3,4-dihydro-2H-benzo[1,4]oxazine]
14 | 101 to 500 | C=Cc1ccc(N2c3cccc(-c4nc5ccc(C#N)cc5[nH]4)c3OC[C@@H]2CO)nc1 [Example 73, (S)-2-(3-(hydroxymethyl)-4-(5-vinyl-pyridin-2-yl)-3,4-dihydro-2H-benzo[b][1,4]oxazin-8-yl)-1H-benzo[d]imidazol-6-carbonitrile]
15 | 101 to 500 | C=Cc1ccc(N2c3cccc(-c4nc5ccccc5[nH]4)c3OC[C@@H]2CO)nc1 [Example 75, (S)-(8-(1H-benzo[d]imidazol-2-yl)-4-(5-vinyl-pyridin-2-yl)-3,4-dihydro-2H-benzo[b][1,4]oxazin-3-yl)methanol]

The remaining lines, values behind:

Row | Molecule | IC50 [nM]
16 | CCc1ccc(N2c3cccc(-c4nc5c(F)cc(F)cc5[nH]4)c3OC[C@@H]2CO)nc1 [Example 86, [(S)-8-(4,6-difluoro-1H-benzimidazol-2-yl)-4-(5-ethyl-pyridin-2-yl)-3,4-dihydro-2H-benzo[1,4]oxazin-3-yl]-methanol] | < 20
17 | Cc1ccc(N2CCOc3c(-c4nc5c(F)cc(Br)cc5[nH]4)cccc32)nc1 [Example 33, 8-(6-bromo-4-fluoro-1H-benzimidazol-2-yl)-4-(5-methyl-pyridin-2-yl)-3,4-dihydro-2H-benzo[1,4]oxazine] | 20 to 100
18 | COC[C@H]1COc2c(-c3nc4c(F)cc(F)cc4[nH]3)cccc2N1c1ccc(C)cn1 [Example 107, (S)-8-(4,6-difluoro-1H-benzo[d]imidazol-2-yl)-3-(methoxymethyl)-4-(5-methyl-pyridin-2-yl)-3,4-dihydro-2H-benzo[b][1,4]oxazine] | 501 to 1000
19 | Cc1ccc(N2CCOc3c(-c4nc5ccc(Br)cc5[nH]4)cccc32)nc1 [Example 26, 8-(6-bromo-1H-benzimidazol-2-yl)-4-(5-methyl-pyridin-2-yl)-3,4-dihydro-2H-benzo[1,4]oxazine] | 101 to 500
20 | COC[C@H]1COc2c(-c3nc4c(Br)cc(OC(F)(F)F)cc4[nH]3)cccc2N1c1ccc(C)cn1 [Example 105, (S)-8-(4-bromo-6-trifluoromethoxy-1H-benzimidazol-2-yl)-3-methoxymethyl-4-(5-methyl-pyridin-2-yl)-3,4-dihydro-2H-benzo[1,4]oxazine] | < 20
21 | COC[C@H]1COc2c(-c3nc4ccccc4[nH]3)cccc2N1c1ccc(C)cn1 [Example 110, (S)-8-(1H-benzo[d]imidazol-2-yl)-3-(methoxymethyl)-4-(5-methyl-pyridin-2-yl)-3,4-dihydro-2H-benzo[b][1,4]oxazine] | 101 to 500
22 | Cc1ccc(N2CCOc3c(-c4nc5c(Cl)cc(C(F)(F)F)cc5[nH]4)cccc32)nc1 [Example 29, 8-(4-chloro-6-trifluoromethyl-1H-benzimidazol-2-yl)-4-(5-methyl-pyridin-2-yl)-3,4-dihydro-2H-benzo[1,4]oxazine] | 101 to 500
23 | C=Cc1ccc(N2c3cccc(-c4nc5c(F)cc(Br)cc5[nH]4)c3OC[C@@H]2CO)nc1 [Example 62, [(S)-8-(6-bromo-4-fluoro-1H-benzimidazol-2-yl)-4-(5-vinyl-pyridin-2-yl)-3,4-dihydro-2H-benzo[1,4]oxazin-3-yl]-methanol] | < 20
24 | CC(C)(C)c1ccc2nc(-c3cccc4c3OCCN4c3ncc(C(F)(F)F)cc3Cl)[nH]c2c1 [Example 9, 8-(6-tert-butyl-1H-benzimidazol-2-yl)-4-(3-chloro-5-trifluoromethyl-pyridin-2-yl)-3,4-dihydro-2H-benzo[1,4]oxazine] | 101 to 500
25 | CCc1ccc(N2c3cccc(-c4nc5cc(F)c(Cl)cc5[nH]4)c3OC[C@@H]2CO)nc1 [Example 84, [(S)-8-(6-chloro-5-fluoro-1H-benzimidazol-2-yl)-4-(5-ethyl-pyridin-2-yl)-3,4-dihydro-2H-benzo[1,4]oxazin-3-yl]-methanol] | 20 to 100
26 | CC(C)(C)c1ccc2[nH]c(-c3cccc4c3OCCN4c3ccc(Br)cn3)nc2c1 [Example 13, 4-(5-bromo-pyridin-2-yl)-8-(5-tert-butyl-1H-benzimidazol-2-yl)-3,4-dihydro-2H-benzo[1,4]oxazine] | 20 to 100

tested on: ICR male mice; assay: Phenyl-p-quinone (PBQ)-induced writhing experiment using mice; format: in vivo; conditions: orally administered, PBQ (0.02%) intraperitoneally after 1 hour
Experimental: In order to evaluate the effect on pain of the compounds prepared in the Examples, behaviors such as twisting or writhing of body resulted from pain were verified by the phenyl-p-quinone (PBQ)-induced writhing experiment using mice. 5 week-old ICR male mice were used as experimental animals and PBQ (0.02%), as a chemical stimulator. The suspensions of 20 mg of the compounds of the present invention and an excipient such as Na—CMC (sodium carboxymethyl cellulose) in 10 mL of saline were used as test compounds. The test compounds were orally administered to the mice and after 1 hour, PBQ was intraperitoneally administrated in an amount of 10 mL per kg of body weight. Also, as a control group, equivalent amounts of BCTC were administered. The writhing number of each mouse was measured for 10 min starting from 5 min after the administration, and the analgesic effect was verified by counting the reduced number compared to the control group administered with only excipient and calculating the % inhibitory rate according to the following Formula 2. % inhibition rate=(writhing # of control group−writhing # of test group)/writhing # of control group×100 [Formula 2]

Row | Molecule | % inhibition rate of writhing [%]
27 | N-(4-tert-butylphenyl)-4-(3-chloropyridin-2-yl)piperazin-1-carboxyamide [BCTC, reference compound] | 33

same assay, conditions: orally administered, PBQ (0.02%) intraperitoneally after 1 hour, writhing counted for 10 min

Row | Molecule | I.A. (inhibitory activity), % inhibition rate of writhing
28 | Cc1ccc(N2CCOc3c(-c4nc5cc(Cl)c(Cl)cc5[nH]4)cccc32)nc1 [Example 28, 8-(5,6-dichloro-1H-benzimidazol-2-yl)-4-(5-methyl-pyridin-2-yl)-3,4-dihydro-2H-benzo[1,4]oxazine] | + (<20%)
29 | CCc1ccc(N2c3cccc(-c4nc5c(F)cc(F)cc5[nH]4)c3OC[C@@H]2CO)nc1 [Example 86, [(S)-8-(4,6-difluoro-1H-benzimidazol-2-yl)-4-(5-ethyl-pyridin-2-yl)-3,4-dihydro-2H-benzo[1,4]oxazin-3-yl]-methanol] | +++ (51-80%)
30 | Cc1ccc(N2CCOc3c(-c4nc5c(F)cc(Br)cc5[nH]4)cccc32)nc1 [Example 33, 8-(6-bromo-4-fluoro-1H-benzimidazol-2-yl)-4-(5-methyl-pyridin-2-yl)-3,4-dihydro-2H-benzo[1,4]oxazine] | +++ (51-80%)
31 | N-(4-tert-butylphenyl)-4-(3-chloropyridin-2-yl)piperazin-1-carboxyamide [BCTC, reference compound] | ++ (20˜50%)

From patent publication US8362012B2, “Benzoxazine benzimidazole derivative, a pharmaceutical composition comprising the same, and a use thereof” (Daewoong Pharmaceutical Co., Ltd., priority 2008, dated 2013)
